# Data taken from paper PMC6095626, “Screening of the Pathogen Box for inhibitors with dual efficacy against Giardia lamblia and Cryptosporidium parvum” (PLoS Neglected Tropical Diseases, 2018).
# What was measured:
# [1] = system: C. parvum (UGA1 Nluc expressing strain in HCT-8 cells); experiment: microbe, parasite or virus in culture; type: cell-based, Cryptosporidium parvum; details: for Crypto (10 uM) Mean % inhibition: initial Pathogen Box screen, single concentration 10 µM, inhibition compared to DMSO wells
# Summary of the method: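 Parasite growth quantified by NanoLuc luminescence from lysed infected HCT-8 cells, with EC50 fitted from dose curves. Compounds, single-dose 10 μM or serially diluted, were added to confluent 48 h monolayers before infection with bleached UGA1 Nluc oocysts.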
# [2] = system: G. lamblia trophozoites (luciferase expressing, WBC6); experiment: microbe, parasite or virus in culture; type: cell-based, Giardia lamblia; details: initial Pathogen Box screen, single concentration 16 µM, inhibition compared to DMSO wells
# Summary of the method: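 Incubation ran 24 h at 37 °C under anaerobic conditions, with compound added in equal volume to trophozoites (WBC6, luciferase-expressing, 250,000 cells/mL). Bioluminescence was the read-out, cross-checked by MOXI Z counts on a duplicate plate; metronidazole served as control (1:2 dilutions from 40 μM).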
Structure (SMILES),Crypto (10 uM) Mean % inhibition [1],Giardia (16 uM) Mean % inhibition [2],"C. parvum cell growth inhibition in the initial screen ([1]; 10 μM, 48 hours) [%]"
CCCCN(CCCC)c1c(C#N)cc(S(=O)(=O)Nc2ccccc2)cc1C#N [MMV688467],X* (Mean or standard deviation are negative but not significantly different from the control to be a growth promoter),60%,–
Nc1ncnc2n[nH]c(Cc3cccc4ccccc34)c12 [MMV688469],57%,9%,–
CS(=O)(=O)N1CCC(CCn2nc(Cc3cccc4ccccc34)c3c(N)ncnc32)CC1 [MMV688470],80%,23%,–
CC(C(=O)Nc1ccc2oc(-c3ccncc3)nc2c1)c1ccccc1 (stereo not shown) [MMV688471],X* (Mean or standard deviation are negative but not significantly different from the control to be a growth promoter),19%,–
CC(Oc1cccc(Cl)c1)C(=O)Nc1ccc2oc(-c3ccncc3)nc2c1 (stereo not shown) [MMV688472],X* (Mean or standard deviation are negative but not significantly different from the control to be a growth promoter),55%,–
COc1cc(C2=NCCN2)ccc1-n1cc(-c2cccc(C3=NCCN3)c2)nn1 [MMV688474],X* (Mean or standard deviation are negative but not significantly different from the control to be a growth promoter),18%,–
CC(=O)NCC1CN(c2ccc(-c3ccc(CO)cc3)c(F)c2)C(=O)O1 (stereo not shown) [MMV688508],X* (Mean or standard deviation are negative but not significantly different from the control to be a growth promoter),X* (Mean or standard deviation are negative but not significantly different from the control to be a growth promoter),–
O=C(OCc1ccccc1)N1CCC(c2cc(-c3ccncc3)c(-c3ccc(F)cc3)[nH]2)CC1 [MMV688509],X* (Mean or standard deviation are negative but not significantly different from the control to be a growth promoter),41%,–
N=C(N)c1ccc(-c2cc(-c3ccccc3)on2)cc1 [MMV688514],79%,36%,–
CC(C)(C)C(=O)N(CCCCCCN1C[C@H](O)[C@@H](O)[C@H](O)[C@H]1CO)C1CCCCCC1 [MMV688543],X* (Mean or standard deviation are negative but not significantly different from the control to be a growth promoter),X* (Mean or standard deviation are negative but not significantly different from the control to be a growth promoter),–
COc1ccc(C2=NCCN2)cc1-c1cn(-c2cccc(C3=NCCN3)c2)nn1 [MMV688547],45%,33%,–
CC(C)(C)n1nc(-c2ccccc2)c2c(N)ncnc21 [MMV688548],94%,63%,–
CCc1ccccc1-n1c(C)cn2c3c(=O)n(C(C(=O)OC)C(C)C)c(=O)n(C)c3nc12 (stereo not shown) [MMV688550],58%,X* (Mean or standard deviation are negative but not significantly different from the control to be a growth promoter),–
Cc1nn(C(=O)Nc2cccc(C(F)(F)F)c2)c(C)c1Sc1ncccn1 [MMV688552],X* (Mean or standard deviation are negative but not significantly different from the control to be a growth promoter),X* (Mean or standard deviation are negative but not significantly different from the control to be a growth promoter),–
O=C(NCc1ccoc1)N1CCN(Cc2ccc3c(c2)OCO3)CC1 [MMV688553],56%,50%,–
CNc1snc(C)c1C(=O)NCCOc1ccc(OC)cc1 [MMV688554],X* (Mean or standard deviation are negative but not significantly different from the control to be a growth promoter),X* (Mean or standard deviation are negative but not significantly different from the control to be a growth promoter),–
O=C(NCc1ccco1)N1CCN(Cc2ccc(Cl)s2)CC1 [MMV688555],X* (Mean or standard deviation are negative but not significantly different from the control to be a growth promoter),34%,–
NCC(c1cccs1)S(=O)(=O)c1ccccc1 (stereo not shown) [MMV688557],81%,-0.156%,–
CN1CCC(c2cc(-c3ccncc3)c(-c3ccc(F)cc3)[nH]2)CC1 [MMV688703],84%,18%,–
Cc1cc2nc(NC(=O)C(C)(C)C)nc(Cl)c2n1Cc1ccc(Cl)cc1 [MMV688704],76%,42%,–
CO/N=C(/C(=O)OC)c1ccccc1CO/N=C(/C)c1cccc(C(F)(F)F)c1 [MMV688754],X* (Mean or standard deviation are negative but not significantly different from the control to be a growth promoter),26%,–
CC(=O)NC[C@H]1CN(c2ccc(N3CCSCC3)c(F)c2)C(=O)O1 [MMV688756],39%,22%,–
CS(=O)(=O)c1ccc(C(=O)N(CC2CCCO2)c2nc3ccccc3s2)cc1[N+](=O)[O-] (stereo not shown) [MMV688761],77%,63%,–

Structure (SMILES),Crypto (10 uM) Mean % inhibition [1],Giardia (16 uM) Mean % inhibition [2],"C. parvum cell growth inhibition in the initial screen ([1]; 10 μM, 48 hours) [%]"
c1ccc(-c2[nH]c3ccccc3c2C(c2ccccn2)N2CCCC2)cc1 (stereo not shown) [MMV688762],X* (Mean or standard deviation are negative but not significantly different from the control to be a growth promoter),22%,–
CNc1nnc(Sc2cnn(-c3ccccc3)c(=O)c2Cl)s1 [MMV688763],49%,X* (Mean or standard deviation are negative but not significantly different from the control to be a growth promoter),–
COc1ccc(-c2onc(C(F)(F)F)c2-c2ccc(Cl)cc2)c(O)c1 [MMV688766],X* (Mean or standard deviation are negative but not significantly different from the control to be a growth promoter),29%,–
Cc1[nH]c2ccccc2c1C(c1cccs1)N1CCN(C)CC1 (stereo not shown) [MMV688768],66%,9%,–
Cc1ccccc1C(=O)N1NC(=Nc2ccccc2)SC1(C)C [MMV688771],82%,51%,–
O=C(Cn1ccnc1[N+](=O)[O-])NCc1ccccc1 [MMV688773],55%,57%,–
CC[C@@H]([C@H](C)O)n1ncn(-c2ccc(N3CCN(c4ccc(OC[C@@H]5CO[C@@](Cn6cncn6)(c6ccc(F)cc6F)C5)cc4)CC3)cc2)c1=O [MMV688774],90%,X* (Mean or standard deviation are negative but not significantly different from the control to be a growth promoter),–
Cc1cccnc1NC(=O)c1cccc(OCc2c(C)noc2C)c1 [MMV688793],63%,45%,–
O=C(NCCc1ccn(-c2ccccc2)n1)C1CCCCC1 [MMV688795],X* (Mean or standard deviation are negative but not significantly different from the control to be a growth promoter),29%,–
O=C(NCc1nnc2n1CCCCC2)c1ccc(-c2ccc(F)cc2)o1 [MMV688796],44%,52%,–
CC1CCCCN1C(=O)NCCc1coc(-c2ccc(F)cc2)n1 (stereo not shown) [MMV688797],X* (Mean or standard deviation are negative but not significantly different from the control to be a growth promoter),23%,–
CS(=O)(=O)c1ccccc1C(=O)N(Cc1ccccc1)c1ccccc1 [MMV688798],46%,9%,–
O=C(N[C@H](Cc1ccccc1)C(=O)Nc1ccccc1N1CCOCC1)c1cccs1 [MMV688845],77%,25%,–
Cc1ccccc1CN1CCC(O)(c2ccc(Cl)c(C(F)(F)F)c2)CC1 [MMV688846],X* (Mean or standard deviation are negative but not significantly different from the control to be a growth promoter),35%,–
CC(C)(C)n1nc(Cc2ccc(F)c(Cl)c2)c2c(N)ncnc21 [MMV688852],80%,27%,–
CCOc1ccc2cc(-c3nn(C(C)(C)C)c(N)c3C(N)=O)cnc2c1 [MMV688853],96%,X* (Mean or standard deviation are negative but not significantly different from the control to be a growth promoter),≥ 95
CN1CCN(c2cc(-c3ccc(F)cc3)nc(-c3ccncc3)n2)CC1 [MMV688888],84%,62%,–
Clc1ccc(CCNc2cc(-c3ccccc3)nc3ncnn23)cc1 [MMV688889],51%,65%,–
COc1cc(Br)cc2cc(C(=O)Nc3cccc(C(F)(F)F)c3)c(=O)oc12 [MMV688891],51%,7.41%,–
OC[C@H]1O[C@@H](n2c3ccc(Cl)cc3c3c(-c4cc5ccccc5o4)ncnc32)C(O)[C@H]1O (stereo partly shown) [MMV688921],51%,5.44%,–
CCc1nn(C)c(C(=O)NCc2ccc(Oc3ccc(C)cc3)cc2)c1Cl [MMV688934],88%,72%,–
O=C(c1ccco1)N(CCCn1ccnc1)c1nc2c(Cl)cccc2s1 [MMV688936],6.36%,31%,–
